This is an account of results in US9434711B2 (Janssen Pharmaceutica, NV, priority 2007, dated 2016).

Where two headings read alike, the source gives them in different places.

For this experiment, the target named is canine TRPM8 (Canis lupus familiaris, UniProt Q1A7N1). Description: In Vitro Canine TRPM8 Functional Assay (Ca2+ fluorescence, icilin activation). In kind it is cell-based. Conditions: for IC50: read-out: IC50; for inhibition at 0.5 µM: compound at 0.5 μM, read-out: % Inh @ 0.5. In outline: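 Readout is the intracellular Ca2+ fluorescence change, measured by FLIPR or FDSS, in HEK293 cells stably expressing canine TRPM8. Potency (EC50 or IC50) is fitted from eight concentrations averaged over quadruplicate wells.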
Sequence of canine TRPM8 (Q1A7N1 1-1104): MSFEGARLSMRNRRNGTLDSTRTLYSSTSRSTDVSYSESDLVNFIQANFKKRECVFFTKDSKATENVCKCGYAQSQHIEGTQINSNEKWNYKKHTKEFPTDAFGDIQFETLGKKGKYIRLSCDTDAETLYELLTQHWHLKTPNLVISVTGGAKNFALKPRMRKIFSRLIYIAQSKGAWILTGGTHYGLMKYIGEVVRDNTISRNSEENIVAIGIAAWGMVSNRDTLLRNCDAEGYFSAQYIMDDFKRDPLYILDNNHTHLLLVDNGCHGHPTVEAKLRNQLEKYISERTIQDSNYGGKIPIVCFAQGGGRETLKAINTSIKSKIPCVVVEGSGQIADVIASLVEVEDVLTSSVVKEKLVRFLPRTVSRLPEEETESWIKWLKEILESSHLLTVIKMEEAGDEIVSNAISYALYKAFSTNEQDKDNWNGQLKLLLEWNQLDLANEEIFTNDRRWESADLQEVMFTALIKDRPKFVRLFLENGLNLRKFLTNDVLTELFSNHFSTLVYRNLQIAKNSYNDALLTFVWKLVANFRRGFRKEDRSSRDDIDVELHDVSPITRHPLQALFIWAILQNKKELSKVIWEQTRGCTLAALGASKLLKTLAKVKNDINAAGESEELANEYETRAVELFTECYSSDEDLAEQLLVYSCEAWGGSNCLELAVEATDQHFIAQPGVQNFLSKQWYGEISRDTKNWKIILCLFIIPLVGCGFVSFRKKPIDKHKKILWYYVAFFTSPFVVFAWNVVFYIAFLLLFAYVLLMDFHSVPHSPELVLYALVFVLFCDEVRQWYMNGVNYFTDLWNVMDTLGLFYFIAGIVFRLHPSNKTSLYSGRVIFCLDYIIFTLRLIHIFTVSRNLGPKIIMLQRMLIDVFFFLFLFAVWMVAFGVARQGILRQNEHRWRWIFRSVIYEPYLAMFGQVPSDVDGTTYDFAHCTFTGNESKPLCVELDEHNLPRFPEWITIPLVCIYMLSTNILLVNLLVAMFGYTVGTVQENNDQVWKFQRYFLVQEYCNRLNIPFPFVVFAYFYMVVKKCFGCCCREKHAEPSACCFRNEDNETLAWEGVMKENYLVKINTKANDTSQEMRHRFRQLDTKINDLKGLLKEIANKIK

Setting [1] is: 0.2 μM compound, HEK293 cells stably expressing canine TRPM8, icilin activation, read-out: % Inh @ 0.2.
The mark [2] stands for this setting: HEK293 cells stably expressing canine TRPM8, icilin activation, average of two or more determinations.
[3] abbreviates: compound at 0.2 μM, canine TRPM8, icilin activation, read-out: % Inh @ 0.2.
Setting [4] is: compound at 0.2 μM, canine TRPM8, icilin activation.
Setting [5] is: HEK293 cells stably expressing canine TRPM8, icilin activation, eight-point dose-response.
Where [6] appears, read: canine TRPM8, icilin activation.

As to `CCS(=O)(=O)N(Cc1ccnc(F)c1)c1sc2ccccc2c1C` [Compound 829, N-(2-Fluoro-pyridin-4-ylmethyl)-N-(3-methyl-benzo[b]thiophen-2-yl)-ethanesulfonamide], under setting [1], the inhibition at 0.2 µM is 100%. Moreover, under setting [2], the IC50 amounted to 0.023 µM.
Turning to `O=S(=O)(c1ccc(-c2nnn[nH]2)cc1)N(CCC(F)(F)F)c1cc2ccccc2s1` [Compound 571, N-(Benzo[b]thiophen-2-yl)-N-(3,3,3-trifluoro-propyl)-4-(1H-tetrazol-5-yl)-benzenesulfonamide], the inhibition at 0.2 µM under setting [3] was 14%.
Turning to `O=S(=O)(c1ccccc1)N(Cc1ccc(F)c(C(F)(F)F)c1)c1sc2ccccc2c1CN1CCCC1` [Compound 381, N-(4-Fluoro-3-trifluoromethyl-benzyl)-N-(3-pyrrolidin-1-yl-methyl-benzo[b]thiophen-2-yl)-benzenesulfonamide], the “% Inh @ 0.2 (μM)” value under setting [4] was 20%.
Take `CCS(=O)(=O)N(Cc1cccc(OC)c1F)c1sc2ccccc2c1C(C)(C)O` [Compound 776, N-(2-Fluoro-3-methoxy-benzyl)-N-[3-(1-hydroxy-1-methyl-ethyl)-benzo[b]thiophen-2-yl]-ethanesulfonamide]: the IC50 under setting [5] came out at 0.0067 µM. The inhibition at 0.2 µM under setting [3] is 95%.
Turning to `C=C(C)c1c(N(Cc2cc(F)c(F)c(OC)c2F)S(=O)(=O)CC)sc2ccccc12` [Compound 803, N-(3-Isopropenyl-benzo[b]thiophen-2-yl)-N-(2,4,5-trifluoro-3-methoxy-benzyl)-ethanesulfonamide], the inhibition at 0.2 µM under setting [1] turned out to be 101%. The IC50 under setting [2] stood at 0.0308 µM.
On to `O=S(=O)(c1ccccc1)N(Cc1cccc2cccnc12)c1sc2ccccc2c1Cl` [Compound 5, N-(3-Chloro-benzo[b]thiophen-2-yl)-N-quinolin-8-ylmethyl-benzenesulfonamide], for which, under setting [5], the IC50 amounted to 0.063 µM. Moreover, the inhibition at 0.5 µM under setting [6] came to 97%.
In the case of `O=c1[nH]c(-c2ccc(S(=O)(=O)N(CCCCC(F)(F)F)c3sc4ccccc4c3Br)cc2)ns1` [Compound 712, N-(3-Bromo-benzo[b]thiophen-2-yl)-N-(5,5,5-trifluoro-pentyl)-4-(5-oxo-4,5-dihydro-[1,2,4]thiadiazol-3-yl)-benzenesulfonamide], the IC50 under setting [5] stood at 0.004 µM. Under setting [3], the inhibition at 0.2 µM is 102%.
The matching figures for `Cc1c(N(CCCC(F)(F)F)S(=O)(=O)c2ccc(C(=O)O)cc2)sc2ccccc12` [Compound 410, N-(3-Methyl-benzo[b]thiophen-2-yl)-N-(4,4,4-trifluoro-butyl)-4-carboxy-benzenesulfonamide]: 0.017 µM and 96%.
The like results for `CC(=O)c1c(N(Cc2ccc(F)c(C(F)(F)F)c2)S(=O)(=O)c2ccc(Br)cc2)sc2ccccc12` [Compound 386, N-(3-Acetyl-benzo[b]thiophen-2-yl)-4-bromo-N-(4-fluoro-3-trifluoromethyl-benzyl)benzenesulfonamide] were, in that order, 0.0128 µM and 101%.
The like results for `CS(=O)(=O)N(Cc1ccc(F)c(C(F)(F)F)c1)c1sc2ccccc2c1CO` [Compound 215, N-(4-Fluoro-3-trifluoromethyl-benzyl)-N-(3-hydroxymethyl-benzo[b]thiophen-2-yl)-methanesulfonamide] were, in that order, 0.006 µM and 101%.
Turning to `Cc1c(N(CCCCC(F)(F)F)S(=O)(=O)c2ccc(C(=O)[O-])cc2)sc2ccccc12.[Na+]` [Compound 545, Sodium, N-(3-Methylbenzo[b]thiophen-2-yl)-N-(5,5,5-trifluoro-pentyl)-4-carboxy-benzenesulfonamide], under setting [5], the IC50 is 0.0019 µM. The “% Inh @ 0.2 (μM)” value under setting [4] is given as 104.78%.
For `CCCCN(c1sc2ccccc2c1Cl)S(=O)(=O)c1ccc(N(C)C)cc1` [Compound 561, N-(3-Chloro-benzo[b]thiophen-2-yl)-N-(butyl)-4-dimethylamino-benzenesulfonamide], the IC50 under setting [5] was determined as 0.0284 µM. Also, the inhibition at 0.2 µM under setting [3] is 103%.
The matching figures for `CCOC(=O)CCCCCN(c1sc2ccccc2c1Br)S(=O)(=O)c1ccccc1` [Compound 230, N-(3-Bromo-benzo[b]thiophen-2-yl)-N-(5-carboethoxy-pentyl)benzenesulfonamide]: 0.0129 µM and 100%.
The like results for `CC(C)(O)C1=C(N(Cc2ccc(F)c(C(F)(F)F)c2)S(=O)(=O)c2ccccc2)S(=O)(=O)c2ccccc21` [Compound 463, N-(4-Fluoro-3-trifluoromethyl-benzyl)-N-[3-(1-hydroxy-1-methyl-ethyl)-1,1-dioxo-benzo[b]thiophen-2-yl]-benzenesulfonamide] were, in that order, 0.026 µM and 101%.
For `COP(=O)(CCN(c1sc2ccccc2c1Br)S(=O)(=O)c1ccccc1)OC` [Compound 254, N-(3-Bromo-benzo[b]thiophen-2-yl)-N-(dimethoxyphosphinoyl-ethyl)-benzenesulfonamide], under setting [5], the IC50 was determined as 0.125 µM. Where the note is “read-out: % Inh @ 0.2 (μM)”, the inhibition at 0.2 µM stood at 58%.
Turning to `CC(C)CN(c1sc2ccccc2c1Br)S(=O)(=O)c1ccc(C(=O)O)cc1` [Compound 452, N-(3-Bromo-benzo[b]thiophen-2-yl)-N-(isobutyl)-4-carboxy-benzenesulfonamide], the IC50 under setting [5] amounted to 0.018 µM. Further, the inhibition at 0.2 µM under setting [3] worked out at 101%.
The matching figures for `COC(=O)CCS(=O)(=O)N(CCCC(F)(F)F)c1sc2ccccc2c1C` [Compound 602, N-(3-Methyl-benzo[b]thiophen-2-yl)-N-(4,4,4-trifluoro-butyl)-2-carbomethoxy-ethanesulfonamide]: 0.0221 µM and 101%.
The matching figures for `Cc1c(N(CCN2CCOCC2)S(=O)(=O)c2ccccc2)sc2ccccc12` [Compound 95, N-(3-Methyl-benzo[b]thiophen-2-yl)-N-(2-morpholin-4-yl-ethyl)-benzenesulfonamide]: 0.006 µM and 97%.
The matching figures for `COC(=O)c1ccc(S(=O)(=O)N(Cc2ccc(F)c(C(F)(F)F)c2)c2sc3ccccc3c2C)o1` [Compound 327, N-(3-Methyl-benzo[b]thiophen-2-yl)-N-(4-fluoro-3-trifluoromethyl-benzyl)-5-carbomethoxy-furan-2-yl-sulfonamide]: 0.037 µM and 97%.
Consider `CCCCCN(c1sc2ccccc2c1Br)S(=O)(=O)c1ccc(C(=O)O)cc1` [Compound 392, N-(3-Bromo-benzo[b]thiophen-2-yl)-N-(pentyl)-4-carboxy-benzenesulfonamide], for which the IC50 under setting [5] is 0.007 µM. The inhibition at 0.2 µM under setting [3] is 93%.
Regarding `CC(C)(C)OC(=O)N1CCCC1CN(c1sc2ccccc2c1Cl)S(=O)(=O)c1ccccc1` (centres unmarked) [Compound 89, N-(3-Chloro-benzo[b]thiophen-2-yl)-N-{[1-(carbo-tert-butoxy)pyrrolidin-2-yl]-methyl}-benzenesulfonamide], the inhibition at 0.5 µM under setting [6] amounted to 96%.
On to `CS(=O)(=O)Nc1ccc(S(=O)(=O)N(CCC(F)(F)F)c2sc3ccccc3c2Br)cc1Br` [Compound 683, 3-Bromo-N-(3-bromo-benzo[b]thiophen-2-yl)-4-methanesulfonylamino-N-(3,3,3-trifluoro-propyl)-benzenesulfonamide], for which the IC50 under setting [5] stood at 0.0258 µM. Also, the inhibition at 0.2 µM under setting [3] amounted to 101%.
In the case of `Cc1c(N(Cc2ccc(F)c(C(F)(F)F)c2)S(=O)(=O)c2ccc(N(C)C)nc2)sc2ccccc12` [Compound 360], the inhibition at 0.2 µM under setting [3] was 92%.
For the molecule `Cc1c(N(Cc2ccc(F)c(C(F)(F)F)c2)S(=O)(=O)c2cccnc2Cl)sc2ccccc12` [Compound 77, N-(4-Fluoro-3-trifluoromethyl-benzyl)-N-(3-methyl-benzo[b]thiophen-2-yl)-2-chloro-pyridine-3-sulfonamide], under setting [5], the IC50 is 0.022 µM. The inhibition at 0.2 µM under setting [3] turned out to be 97%.
The like results for `O=C(O)c1cccc(S(=O)(=O)N(Cc2ccc(F)c(C(F)(F)F)c2)c2cc3ccccc3s2)c1` [Compound 295, N-(Benzo[b]thiophen-2-yl)-N-(4-fluoro-3-trifluoromethyl-benzyl)-3-carboxy-benzenesulfonamide] were, in that order, 0.033 µM and 81%.
On to “N-(3-Methyl-benzo[b]thiophen-2-yl)-N-(4-fluoro-3-trifluoromethyl-benzyl)-4-pyrazol-1-yl-benzenesulfonamide [Compound 332]”, for which the IC50 under setting [5] was found to be 0.007 µM. The “% Inh @ 0.2 (μM)” value under setting [4] came out at 100%.
The matching figures for `O=S1NC(c2ccc(S(=O)(=O)N(CCC(F)(F)F)c3sc4ccccc4c3Br)cc2)=NO1` (centres unmarked) [Compound 607, N-(3-Bromo-benzo[b]thiophen-2-yl)-N-(3,3,3-trifluoro-propyl)-4-(3H-[1,2,3,5]oxathiadiazole-2-oxide)-benzenesulfonamide]: 0.0368 µM and 101%.
As to `CS(=O)(=O)N(Cc1ccc(F)c(F)c1)c1sc2ccccc2c1C=O` [Compound 209, N-(3,4-Difluoro-benzyl)-N-(3-formyl-benzo[b]thiophen-2-yl)-methanesulfonamide], under setting [5], the IC50 stood at 0.032 µM. Also, under setting [3], the inhibition at 0.2 µM came to 98%.
On to `COc1ccccc1CN(c1cc2ccccc2s1)S(=O)(=O)c1ccccc1` [Compound 47, N-(Benzo[b]thiophen-2-yl)-N-(2-methoxy-benzyl)-benzenesulfonamide], for which the IC50 under setting [5] stood at 0.112 µM. Further, under setting [6], the inhibition at 0.5 µM amounted to 97%.
Regarding `COc1ccc(S(=O)(=O)N(Cc2ccc(F)c(C(F)(F)F)c2)c2sc3ccccc3c2Br)cc1` [Compound 182, N-(3-Bromo-benzo[b]thiophen-2-yl)-N-(4-fluoro-3-trifluoromethyl-benzyl)-4-methoxy-benzenesulfonamide], under setting [5], the IC50 was determined as 0.01 µM. Further, under setting [6], the inhibition at 0.5 µM turned out to be 99%.

What is called IC50 is the concentration needed to halve the response being measured.
